Measured values taken from PubChem BioAssay (NCI).
Several values for one entry are separate records, joined by “and”; a condition that tells them apart may be missing. Equal entries are not always repeated.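 Compound exposure: 48 hours, 5 concentrations, 96-well plates. GI50 is the concentration that inhibits growth by half. Definition used: TGI = concentration required for complete inhibition of growth.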

Columns and labels:
Assay in all cases: NCI anticancer screen, dose series, 48 h
CAKI-1 renal = test system: CAKI-1 renal
CCRF-CEM leukemia = test system: CCRF-CEM leukemia
HL-60(TB) leukemia = test system: HL-60(TB) leukemia
HOP-62 NSCLC = test system: HOP-62 NSCLC
K-562 leukemia = test system: K-562 leukemia
LOX IMVI melanoma = test system: LOX IMVI melanoma
OVCAR-5 ovarian = test system: OVCAR-5 ovarian
RXF 393 renal = test system: RXF 393 renal
SNB-75 CNS = test system: SNB-75 CNS
UACC-257 melanoma = test system: UACC-257 melanoma

Row | Structure (SMILES) | GI50 (CAKI-1 renal) | TGI (CAKI-1 renal) | GI50 (CCRF-CEM leukemia) | TGI (CCRF-CEM leukemia) | GI50 (HL-60(TB) leukemia) | TGI (HL-60(TB) leukemia) | GI50 (HOP-62 NSCLC) | TGI (HOP-62 NSCLC) | GI50 (K-562 leukemia) | TGI (K-562 leukemia) | GI50 (LOX IMVI melanoma) | TGI (LOX IMVI melanoma) | GI50 (OVCAR-5 ovarian) | TGI (OVCAR-5 ovarian) | GI50 (RXF 393 renal) | TGI (RXF 393 renal) | GI50 (SNB-75 CNS) | TGI (SNB-75 CNS) | GI50 (UACC-257 melanoma) | TGI (UACC-257 melanoma)
1 | CC(C)(C)OC(=O)CN1CCc2c(sc3ncnc(N/N=C/c4cccc5ccccc45)c23)C1 | 3.3 µM | 18.7 µM | 1.56 µM | > 33.3 µM | 2.55 µM | 19.2 µM | 2.31 µM | 11.4 µM | 1.08 µM | > 33.3 µM | 1.72 µM | 5.93 µM | 3.34 µM | 8.41 µM | 1.56 µM | 6.93 µM | 1.04 µM | 14.4 µM | 4.59 µM | 21.7 µM
2 | CC(=O)OC1CCC2(C)C(=CCC3C4CCC5(OC6CC(C)CN(C(C)=O)C6C5C)C(C)=C4C(=O)C32)C1 (stereo not drawn) |  | 75.1 µM |  | > 100 µM |  | > 100 µM |  | 46.4 µM |  | 52.7 µM |  | 24.4 µM |  | 46.6 µM |  | 32.2 µM |  | 41.5 µM |  | 27.3 µM
3 | CC1SC(c2c(Cl)cccc2Cl)N(NC(=O)C(O)c2ccccc2)C1=O (stereo not drawn) | 62.1 µM | > 100 µM | 74.6 µM | > 100 µM | 94 µM | > 100 µM | 89.3 µM | > 100 µM | 39.9 µM | > 100 µM | 60.7 µM | > 100 µM | > 100 µM | > 100 µM | 93.2 µM | > 100 µM | 46.9 µM | > 100 µM | 86.3 µM | > 100 µM
4 | CC(CN1CCN(CC(C)Nc2ccnc3cc(Cl)ccc23)CC1)Nc1ccnc2cc(Cl)ccc12 (stereo not drawn) |  | > 100 µM |  | > 100 µM |  | 19.3 µM |  | > 63 µM |  | > 100 µM |  | 8.19 µM |  | > 68.6 µM |  | 14.7 µM |  | 18.3 µM |  | 29.5 µM
5 | Cc1cc(C)c2c(SCc3ccc(Cl)cc3Cl)nc(N)nc2n1 |  | > 100 µM |  | > 100 µM |  | > 100 µM |  | > 100 µM |  | 97.1 µM |  | > 100 µM |  | > 100 µM |  | > 100 µM |  | > 100 µM |  | 38.2 µM
6 | CCN(CC)CCOc1ccc2c(c1)C(=O)c1cc(OCCN(CC)CC)ccc1-2 | 30.2 µM | > 100 µM | 4.81 µM | 21 µM | 3.04 µM | 17.5 µM | 8.12 µM | 28 µM | 3.1 µM | 11.2 µM | 4.31 µM | 16.7 µM | 35.6 µM | 69.7 µM | 10.2 µM | 24 µM | 12.2 µM | 24.9 µM | 11.5 µM | 24.9 µM
7 | COc1cc(NCc2ccccc2O)c2ncccc2c1 | 6.02 µM | 34.1 µM | 17 µM | > 100 µM | 18.5 µM | 57 µM | 19.7 µM | > 100 µM | 17.2 µM | > 100 µM | 17.1 µM | 67.3 µM | 80.3 µM | > 100 µM | 18.5 µM | 68.8 µM | 8.52 µM | 59.3 µM | 19.5 µM | 70.7 µM
8 | COc1cc2cc(Oc3ccc(NC(=O)Nc4ccc(Cl)c(C(F)(F)F)c4)cc3)c(C)nc2cc1OC | 0.782 µM | 2.54 µM | 1.01 µM | 3.09 µM | 1.13 µM | 3.12 µM | 1.3 µM | 5.32 µM | 1.11 µM | 4.81 µM | 1.22 µM | 4.16 µM | 1.93 µM | 6.22 µM | 1.33 µM | 4.21 µM | 1.03 µM | 4.9 µM | 0.71 µM | 2.36 µM
9 | O=C(O)/C(=C\c1ccccc1Cl)S(=O)(=O)c1ccccc1 |  | > 100 µM |  | > 100 µM |  | > 100 µM |  | > 100 µM |  | > 100 µM |  | > 100 µM |  | > 100 µM |  | > 100 µM |  | > 100 µM |  | > 100 µM
10 | BrC1=CC=C2NCCCCCCN=C3C=CC(Br)=CC=C3NCCCCCCN=C2C=C1 |  | > 25.5 µM |  | > 25.5 µM |  | > 25.5 µM |  | > 25.5 µM |  | > 25.5 µM |  | > 25.5 µM |  | > 25.5 µM |  | > 25.5 µM |  | > 25.5 µM |  | > 25.5 µM
11 | CC1(C)CC(=O)C(=[N+]=[N-])C(=O)C1 |  | > 100 µM |  | > 100 µM |  | > 100 µM |  | > 100 µM |  | > 100 µM |  | > 100 µM |  | > 100 µM |  | > 100 µM |  | > 100 µM |  | > 100 µM
12 | Cc1cccc2c1O/C(=C\c1ccc([N+](=O)[O-])o1)C2=O | 0.494 µM | 1.8 µM | 0.285 µM | 1.05 µM | 1.58 µM | 4.35 µM | 1.64 µM | 4.44 µM | 0.296 µM | 1.12 µM | 1.23 µM | 2.69 µM | 1.79 µM | 3.74 µM | 1.24 µM | 2.83 µM | 1.64 µM | 5.8 µM | 1.42 µM | 2.91 µM
13 | O=C(CNc1ncco1)Nc1ccc(S(=O)(=O)c2ccc(NC(=O)CNc3ncco3)cc2)cc1 | 1.56 µM | 3.28 µM | 1.08 µM | 5.91 µM | 4.72 µM | 21.3 µM | 2.07 µM | 4.09 µM | 2 µM | 5.95 µM | 0.308 µM | 1.92 µM | 2.03 µM | 4.13 µM | 1.42 µM | 2.86 µM | 6.04 µM | 20.7 µM | 1.85 µM | 4.86 µM
14 | O=C1C(=O)c2ccccc2C(O)=C1CC=C(Cl)Cl | 7.47 µM and 7.14 µM | 65.6 µM and 136 µM and > 100 µM | 1.57 µM and 4.69 µM | 52.1 µM and 162 µM and > 100 µM | 3.24 µM and 13.3 µM | 37.8 µM and > 76.6 µM and 56.6 µM | 9.44 µM and 14 µM | 64.1 µM and 61 µM and > 100 µM | 0.987 µM and 3.19 µM | > 41.5 µM and 175 µM and > 100 µM | 2.68 µM | 30.7 µM and 51.9 µM and > 100 µM | 17.2 µM and 28.3 µM | 195 µM and > 100 µM | 13.8 µM and 13.7 µM | 76.9 µM and 203 µM and 97.9 µM | 21.3 µM and 6.06 µM | 65 µM and 169 µM and > 100 µM |  | 58.2 µM and 65.8 µM and 65.3 µM
15 | [C-]#[N+][C@]12C(=O)[C@H](CCC1(C)C)C(C)(C)[C@H]1C(=O)N(C)c3cccc2c31 | 51.7 µM | > 100 µM | 5.84 µM | > 100 µM | 4.07 µM | > 100 µM | 9.6 µM | > 100 µM | 4.8 µM | > 100 µM | > 100 µM | > 100 µM | > 100 µM | > 100 µM | > 100 µM | > 100 µM | 64.3 µM | > 100 µM | 4.07 µM | > 100 µM
16 | C1=C(c2ccccc2)SC=C(c2ccccc2)S1 |  | > 100 µM |  | > 100 µM |  | > 100 µM |  | > 100 µM |  | 89.3 µM |  | > 100 µM |  | > 100 µM |  | 48.1 µM |  | 64 µM |  | > 100 µM
17 | CN1CCN(CCNc2ccc(CO)c3sc4ccccc4c(=O)c23)CC1 |  | 19.8 µM |  | > 48 µM |  | 15.7 µM |  | 18.6 µM |  | 14.7 µM | 2.59 µM | 8.27 µM |  | 21.2 µM | 0.0726 µM | 1.82 µM |  | 14.5 µM |  | 9.84 µM
18 | Cc1cc(C)n(C(=O)c2nn(-c3ccc(Cl)cc3)cc2O)n1 | 4.23 µM | 42.3 µM | 3.66 µM | 54.5 µM | 39.6 µM | > 100 µM | 5.21 µM | 79.4 µM | > 100 µM | > 100 µM | 3.94 µM | > 100 µM | 4.98 µM | > 100 µM | 4.58 µM | > 100 µM | 3.52 µM | 73.1 µM | 16.6 µM | > 100 µM
19 | CC(O)(CNS(=O)(=O)c1ccccc1)c1ccccc1 (stereo not drawn) |  | > 100 µM |  | > 100 µM |  | > 100 µM |  | > 100 µM |  | > 100 µM |  | > 100 µM |  | > 100 µM |  | > 100 µM |  | > 100 µM |  | 
20 | CS(=O)(=O)CCn1c(=O)c(Oc2ccc(F)cc2F)cc2cnc(NC3CCOCC3)nc21 | > 25 µM | > 25 µM | > 25 µM | > 25 µM | > 25 µM | > 25 µM | > 25 µM | > 25 µM | > 25 µM | > 25 µM | > 25 µM | > 25 µM | > 25 µM | > 25 µM | > 25 µM | > 25 µM | > 25 µM | > 25 µM | > 25 µM | > 25 µM
21 | Cc1cccc(C)c1NC(=O)CCC(=O)NC(N)=S |  | > 100 µM |  | > 100 µM |  | > 100 µM |  | > 100 µM |  | > 100 µM |  | > 100 µM |  | > 100 µM |  | > 100 µM |  | > 100 µM |  | > 100 µM
22 | CCOc1ccc2ccc3cccnc3c2n1 |  | > 100 µM |  | > 100 µM |  | > 100 µM |  | 61.4 µM |  | > 100 µM |  | > 100 µM |  | > 100 µM |  | > 100 µM |  | > 100 µM |  | 85.1 µM
23 | COc1cc(Cl)c2c3c(c(C(=O)c4ccccc4)oc13)CCC2 |  | > 100 µM |  | > 100 µM |  | > 100 µM |  | > 100 µM |  | > 100 µM |  | > 100 µM |  |  |  | > 100 µM |  | > 100 µM |  | > 100 µM
24 | c1cc(-c2cn[nH]c2)cc(-c2cn[nH]c2)c1 |  | 83.9 µM |  | > 100 µM |  | 66.6 µM |  | > 100 µM |  | > 100 µM |  | > 100 µM |  |  |  | 36.8 µM |  | 42.7 µM |  | > 100 µM
